This is an account of results in patent publication US4424225A, “Thienobenzodiazepinones, pharmaceutical compositions thereof and method of use thereof” (Dr. Karl Thomae GmbH, priority 1982, dated 1984).

Data set [1] in a line: Oxotremorine test: inhibition of oxotremorine-induced secretion of saliva. Conditions: rat, in vivo, iv, 15 minutes before oxotremorine 0.083 mg/kg i.v.; read-out: Oxotremorine Test, Inhibition of Salivation ED50. Set-up: species or system rat (female albino, Crl: COBS-CD (SD) BR). On the procedure: (§1) Oxotremorine, a specific agonist for muscarinic receptors, produces lesions in the mucous membrane of the stomach in rats and increases their secretion of saliva. This test method was chosen so that any selective activity of an anti-muscarinic substance on the stomach could be identified.
Ten female albino rats (of the Crl: COBS-CD (SD) BR strain) with a body weight of from 120 to 150 gm apiece were used in each treatment group and were kept without food for 24 hours before the start of the test but given free access to drinking water.
To determine, in preliminary tests, the muscarinic effect of oxotremorine on each of the symptoms studied, a dosage/activity curve was drawn up with at least three dosages for each symptom.
When the antimuscarinic substances were tested, the dosage of oxotremorine which triggered the symptom in question in 90 to 100% of the animals in the preliminary tests was used.
Secretion of saliva: 0.083 mg/kg i.v.
(§2) Each antimuscarinic substance was administered intravenously in uniformly graduated doses 15 minutes before the oxotremorine was administered. Control groups were given corresponding quantities of the solvent and suspension agent instead of the test substance. […]
(§3) The ED50 values were determined using the method described by LITCHFIELD and WILCOXON (J. Pharmacol. Exp. Ther. 96, 99, 1949).

Data set [2] can be described thus: Testing for mydriasis. Conditions: rat, in vivo, iv; pupil observed for 10 minutes. The method, then:
The effect of the test substances on the pupil size in rats was investigated as follows:
The substances were administered intravenously to groups of 10 animals in at least three uniformly graduated doses. The pupil size was then observed for 10 minutes to see if there were any changes (mydriasis or miosis). […] The percentage of test animals in which mydriasis occurred was determined. The ED50 values were again determined using the method of LITCHFIELD and WILCOXON (see above).

The target in data set [3] is T1, muscarinic receptors (smooth muscle of the fundus of the stomach) (Rattus norvegicus, UniProt P10980).
T1 construct: The smooth muscle of the fundus of the stomach was separated from the mucous membrane of the stomach; from tissue; host or cells: homogenized smooth muscle of the stomach fundus of male Sprague-Dawley rats
T1 sequence (P10980 1-466): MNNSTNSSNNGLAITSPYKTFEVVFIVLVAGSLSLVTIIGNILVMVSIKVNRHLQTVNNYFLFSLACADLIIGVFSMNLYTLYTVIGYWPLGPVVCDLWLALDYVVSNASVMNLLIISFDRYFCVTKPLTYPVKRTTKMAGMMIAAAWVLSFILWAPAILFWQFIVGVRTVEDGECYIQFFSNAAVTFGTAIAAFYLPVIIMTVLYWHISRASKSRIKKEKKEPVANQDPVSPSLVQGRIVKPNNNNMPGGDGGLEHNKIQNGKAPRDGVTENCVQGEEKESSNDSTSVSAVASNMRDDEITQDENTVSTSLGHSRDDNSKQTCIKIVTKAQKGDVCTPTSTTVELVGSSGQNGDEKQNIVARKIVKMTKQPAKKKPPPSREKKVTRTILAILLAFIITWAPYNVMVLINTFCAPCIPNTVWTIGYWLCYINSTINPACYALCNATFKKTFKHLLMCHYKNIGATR
In words: Binding to muscarinic receptors, displacement of 3H-N-methylscopolamine, smooth muscle of the fundus of the stomach. Set-up: species or system rat (male Sprague-Dawley). Conditions: 0.3 n molar 3H-NMS, 30° C., 45 minutes, pH 7.4, read-out: Receptor Binding Tests IC50, Smooth Muscle Fundus of Stomach. The method, then:
(§4) 3. STUDIES OF BINDING TO MUSCARINIC RECEPTORS: DETERMINATION OF THE IC50 VALUE
(§5) The organ donors were male Sprague-Dawley rats with a body weight of from about 180 to 220 gm each. After the heart, stomach, and cerebral cortex had been removed, the remainder of the operation was carried out in ice-cold Hepes-HCl buffer (pH 7.4; 100 m molar NaCl, 10 m molar MgCl2). The smooth muscle of the fundus of the stomach was separated from the mucous membrane of the stomach and subjected to preliminary homogenization. The whole heart was cut up with scissors. All the organs were then homogenized in a Potter apparatus.
(§6) For the binding test, the homogenized organs were diluted as follows:
Smooth muscle of the fundus of the stomach: 1:100
The homogenized organ preparations were incubated at a specific concentration of the radioligand and with a series of concentrations of the non-radioactive test substances in an Eppendorf centrifuge tube at 30° C. The duration of incubation was 45 minutes. […] After incubation had been brought to an end by centrifuging at 14000 g, the radioactivity in the pellet was determined. […] The proportion of non-specific binding was defined as the radioactivity which was bound in the presence of 1μ molar quinuclidinylbenzylate. […] The IC50 values of the non-labelled test substances were determined graphically. […]
(In general: In a radioligand displacement assay an active substance lowers the binding of a labelled ligand.)

For data set [4], the target named is muscarinic receptors (cerebral cortex). The experiment in a line: Binding to muscarinic receptors, displacement of 3H-N-methylscopolamine, cerebral cortex. Also on record: species or system rat (male Sprague-Dawley). The settings on record: 0.3 n molar 3H-NMS, 30° C., 45 minutes, pH 7.4, read-out: Receptor Binding Tests IC50, Cortex. On the procedure: as §4, §5, §6
The homogenized organ preparations were incubated at a specific concentration of the radioligand and with a series of concentrations of the non-radioactive test substances in an Eppendorf centrifuge tube at 30° C. The duration of incubation was 45 minutes. The substance 0.3 n molar ^3 H-N-methylscopolamine (^3 H-NMS) was used as the radioligand. After incubation had been brought to an end by centrifuging at 14000 g, the radioactivity in the pellet was determined. […] The proportion of non-specific binding was defined as the radioactivity which was bound in the presence of 1μ molar quinuclidinylbenzylate. […] The IC50 values of the non-labelled test substances were determined graphically. […]

Data set [5] deals with oxotremorine-induced lesions in the mucous membrane of the stomach (muscarinic receptors). The experiment in a line: Oxotremorine test: protection against oxotremorine-induced lesions of the gastric mucous membrane. Format: in vivo, rat (female albino, Crl: COBS-CD (SD) BR). The settings on record: Rattus norvegicus, iv, 15 minutes before oxotremorine 0.62 mg/kg i.v., neostigmine 1 mg/kg oral. On the procedure:
as §1
Ten female albino rats (of the Crl: COBS-CD (SD) BR strain) with a body weight of from 120 to 150 gm apiece were used in each treatment group and were kept without food for 24 hours before the start of the test but given free access to drinking water. […]
as §2, §3
The effects on lesions of the mucous membrane of the stomach were evaluated as follows:
The lesions of the gastric mucous membrane were produced by intravenous injection of 0.62 mg/kg of oxotremorine 30 minutes after oral administration of 1 mg/kg of neostigmine (a cholinesterase inhibitor). […] The protective effect of the test substances was expressed as the percentage inhibition (percentage of animals without lesions). […]

In general, ED50 refers to the midpoint of the dose-response relation. As a reminder, the IC50 is the concentration that gives 50% inhibition. As for `CN1CCC(CC(=O)N2c3ccccc3NC(=O)c3cscc32)CC1` [A, 4,9-Dihydro-4-[(1-methyl-4-piperidinyl)acetyl]-10H-thieno[3,4-b][1,5]benzodiazepin-10-one], the ED50 at 0.25 h in data set [1] is 0.0215 mg/kg. The ED50 at 10 min in data set [2] is 0.03 mg/kg. Further, the IC50 was 75 nM in data set [3] and 20 nM in data set [4]. Moreover, in data set [5] (read-out: Oxotremorine Test, Anti-ulcerative Effect ED50), the ED50 amounted to 0.0078 mg/kg. In addition, the ED70 in data set [5] (read-out: Oxotremorine Test, Anti-ulcerative Effect ED70) is 0.014 mg/kg.
